Literature values in PMC6987128, “Target protein-oriented isolation of Hes1 dimer inhibitors using protein based methods” (Scientific Reports, 2020).

System: NSCs
Conditions: cited from earlier work

**Q.** With `COc1ccc(-c2cc(=O)c3c(O[C@@H]4O[C@H](CO[C@@H]5OC[C@@H](O)[C@H](O)[C@H]5O)[C@@H](O)[C@H](O)[C@H]4O)cc(OC)cc3o2)cc1` [agalloside] as the compound, how does the “differentiation of NSCs to neurons” value read?
**A.** accelerated the differentiation of NSCs to neurons

**Q.** Which “differentiation of NSCs to neurons” value does the source give for `C/C=C/C=C/C=C/[C@@H]1NCC[C@@H](O)[C@H]1C` [inohanamine] here?
**A.** accelerated the differentiation of NSCs to neurons

**Q.** Which “differentiation of NSCs to neurons” value does the source give for isomicromonolactam here?
**A.** accelerated the differentiation of NSCs to neurons
